Data reported in publication PMC4893628, “Chalcone-based Selective Inhibitors of a C4 Plant Key Enzyme as Novel Potential Herbicides” (Scientific Reports, 2016).
Where “and” joins values, the source holds several entries; their conditions need not be identical. Identical values can stand only once. Like-named read-outs stand apart in the source and are kept apart here.

Legend:
F. trinervia PEPC = molecular target: T1, F. trinervia PEPC (Flaveria trinervia, UniProt P30694); assay: biochemical; assay type: biochemical
T1 construct: the full-length ppcA gene of PEPC from F. trinervia (EMBL-Bank X61304); made in house; host or cells: Escherichia coli BL21(DE3)
T1 sequence (P30694 1-966): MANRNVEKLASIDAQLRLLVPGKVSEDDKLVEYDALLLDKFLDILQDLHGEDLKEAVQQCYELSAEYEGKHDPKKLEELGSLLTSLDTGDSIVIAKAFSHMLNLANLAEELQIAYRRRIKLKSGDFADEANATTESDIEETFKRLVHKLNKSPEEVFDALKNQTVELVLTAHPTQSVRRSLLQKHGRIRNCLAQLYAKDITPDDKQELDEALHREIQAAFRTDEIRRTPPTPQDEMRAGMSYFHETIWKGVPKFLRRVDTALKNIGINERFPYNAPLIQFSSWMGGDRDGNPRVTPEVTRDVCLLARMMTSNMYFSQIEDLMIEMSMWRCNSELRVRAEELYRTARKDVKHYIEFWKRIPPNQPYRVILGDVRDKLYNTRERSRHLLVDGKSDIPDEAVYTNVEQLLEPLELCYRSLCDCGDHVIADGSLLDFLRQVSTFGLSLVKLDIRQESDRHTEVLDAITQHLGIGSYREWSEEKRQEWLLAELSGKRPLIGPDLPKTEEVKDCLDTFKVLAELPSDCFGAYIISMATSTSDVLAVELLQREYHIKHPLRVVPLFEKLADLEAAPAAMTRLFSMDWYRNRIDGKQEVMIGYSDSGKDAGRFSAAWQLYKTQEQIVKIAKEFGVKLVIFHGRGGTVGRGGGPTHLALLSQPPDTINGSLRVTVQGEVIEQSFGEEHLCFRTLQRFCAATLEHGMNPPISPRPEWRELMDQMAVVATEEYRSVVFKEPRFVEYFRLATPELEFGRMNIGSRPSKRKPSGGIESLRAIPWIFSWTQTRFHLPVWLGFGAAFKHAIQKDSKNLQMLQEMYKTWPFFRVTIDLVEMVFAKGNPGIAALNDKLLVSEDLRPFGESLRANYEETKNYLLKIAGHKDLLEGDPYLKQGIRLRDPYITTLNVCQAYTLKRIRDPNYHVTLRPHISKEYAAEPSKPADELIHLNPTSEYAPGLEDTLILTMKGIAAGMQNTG
Description: The IC50 values of small molecule compounds on F. pringlei and F. trinervia PEPCs were determined using PEPC coupled spectrophotometric assay. The amount of NADH oxidized by NADH-malate dehydrogenase was measured by the decrease in absorbance at 340 nm in a Beckman DU-800 spectrophotometer, thus the value is in proportion to the corresponding substrate conversion of the enzyme. […] The reactions were started by adding two folds of the Km value of PEP for each enzyme. The data were analyzed using GraFit (Erithacus Software, UK).

[1] = test system: Pseudomonas putida KT2440; assay: Bacterial growth in microscale cultivation, P. putida; assay type: cell-based; settings: relative to control; for activity at 0.3 µM / activity at 3 µM / activity at 30 µM: Pseudomonas putida
Description: (§1) The following bacteria were cultivated in the presence of trans-chalcone derived inhibitors: Corynebacterium glutamicum ATCC13032[43], Escherichia coli K-12 MG1655[44], Pseudomonas putida KT2440[45], and Bacillus subtilis 168[46]. The growth of these bacteria was monitored in flower-well plates shaken at 1200 rpm as backscatter at 620 nm (gain 20) using a BioLector® microscale cultivation system (m2p labs, Baesweiler, Germany). For further experimental details please refer to the Supplementary Information.
(§2) medium or the appropriate minimal medium and shaken at 140 rpm overnight. For inoculation of
(§3) the main culture, cells equivalent to an optical density at 600 nm of 0.5 (C. glutamicum, E. coli,
(§4) and P. putida) or 0.25 (B. subtilis) in 800 µL medium were washed and resuspended in fresh
(§5) media. Inhibitor substances were dissolved in DMSO and added to the media to a final
(§6) Since the least polar trans-chalcone and 2’-hydroxychalcone precipitated in the growth media at
(§7) the highest concentrations, the maximal concentration of these compounds was reduced to 400
(§8) µM and 100 µM, respectively. The final backscatter at 620 nm, the growth rate (h-1), and the
(§9) duration of the lag phase of all cultures were determined in a BioLector microscale cultivation
(§10) system in comparison to negative controls supplemented with the solvent DMSO. A longer lag

Bacillus subtilis 168 = assay: Bacterial growth in microscale cultivation, B. subtilis; assay type: cell-based; settings: relative to control
Description: as §1, §2, §3, §4, §5, §6, §7, §8, §9, §10

Compound: O=C(/C=C/c1ccc(O)c(O)c1)c1c(O)cc(O)cc1O [Compound 11, 2′,4′,6′,3,4-Pentahydroxy-chalcone]
- lower inhibitory effect / weaker inhibitory potency compared to okanin (12) (F. trinervia PEPC; C4 PEPC): ~ four
- Selectivity C4/C3 (F. trinervia PEPC; C4 PEPC over C3 isoform): 3.3 fold
- IC50 (F. trinervia PEPC; C4 PEPC, read-out: IC50 F. trinervia PEPC): 2.5 ± 0.1 µM
- decreased / lower selectivity compared to okanin (12) (F. trinervia PEPC; C4 vs. C3 PEPC): ~ 14 fold and ~ 13 fold
- activity at 0.3 µM ([1]; KT2440, complex medium, 0.3 µM, read-out: Final Backscatter): 92.6%
- activity at 0.3 µM ([1]; KT2440, complex medium, 0.3 µM, read-out: Growth rate): 108%
- activity at 3 µM ([1]; KT2440, complex medium, 3 µM, read-out: Final Backscatter): 96.8%
- activity at 3 µM ([1]; KT2440, complex medium, 3 µM, read-out: Growth rate): 106%
- activity at 30 µM ([1]; KT2440, complex medium, 30 µM, read-out: Final Backscatter): 92.5%
- activity at 30 µM ([1]; KT2440, complex medium, 30 µM, read-out: Growth rate): 105%
- activity at 0.3 µM ([1]; KT2440, minimal medium, 0.3 µM, read-out: Final Backscatter): 93.9%
- activity at 0.3 µM ([1]; KT2440, minimal medium, 0.3 µM, read-out: Growth rate): 96.8%
- activity at 3 µM ([1]; KT2440, minimal medium, 3 µM, read-out: Final Backscatter): 94.9%
- activity at 3 µM ([1]; KT2440, minimal medium, 3 µM, read-out: Growth rate): 98.7%
- activity at 30 µM ([1]; KT2440, minimal medium, 30 µM, read-out: Final Backscatter): 99%
- activity at 30 µM ([1]; KT2440, minimal medium, 30 µM, read-out: Growth rate): 95.2%
- Lag Phase ([1]; complex medium, 0.3 µM): 95,5%
- Lag Phase ([1]; complex medium, 3 µM): 97,5%
- Lag Phase ([1]; complex medium, 30 µM): 97,0%
- Lag Phase ([1]; minimal medium, 0.3 µM): 99,3%
- Lag Phase ([1]; minimal medium, 3 µM): 98,9%
- Lag Phase ([1]; minimal medium, 30 µM): 98,9%
- activity at 0.3 µM (Bacillus subtilis 168; Bacillus subtilis, 168, complex medium, 0.3 µM, read-out: Final Backscatter): 97.4%
- activity at 0.3 µM (Bacillus subtilis 168; Bacillus subtilis, 168, complex medium, 0.3 µM, read-out: Growth rate): 106%
- activity at 3 µM (Bacillus subtilis 168; Bacillus subtilis, 168, complex medium, 3 µM, read-out: Final Backscatter): 96.5%
- activity at 3 µM (Bacillus subtilis 168; Bacillus subtilis, 168, complex medium, 3 µM, read-out: Growth rate): 106%
- activity at 30 µM (Bacillus subtilis 168; Bacillus subtilis, 168, complex medium, 30 µM, read-out: Final Backscatter): 97.1%
- activity at 30 µM (Bacillus subtilis 168; Bacillus subtilis, 168, complex medium, 30 µM, read-out: Growth rate): 97.8%
- activity at 0.3 µM (Bacillus subtilis 168; Bacillus subtilis, 168, minimal medium, 0.3 µM, read-out: Final Backscatter): 97.2%
- activity at 0.3 µM (Bacillus subtilis 168; Bacillus subtilis, 168, minimal medium, 0.3 µM, read-out: Growth rate): 114%
- activity at 3 µM (Bacillus subtilis 168; Bacillus subtilis, 168, minimal medium, 3 µM, read-out: Final Backscatter): 98.7%
- activity at 3 µM (Bacillus subtilis 168; Bacillus subtilis, 168, minimal medium, 3 µM, read-out: Growth rate): 107%
- activity at 30 µM (Bacillus subtilis 168; Bacillus subtilis, 168, minimal medium, 30 µM, read-out: Final Backscatter): 103%
- activity at 30 µM (Bacillus subtilis 168; Bacillus subtilis, 168, minimal medium, 30 µM, read-out: Growth rate): 103%
- Lag Phase (Bacillus subtilis 168; complex medium, 0.3 µM): 100,0%
- Lag Phase (Bacillus subtilis 168; complex medium, 3 µM): 100,0%
- Lag Phase (Bacillus subtilis 168; complex medium, 30 µM): 100,0%
- Lag Phase (Bacillus subtilis 168; minimal medium, 0.3 µM): 100,0%
- Lag Phase (Bacillus subtilis 168; minimal medium, 3 µM): 101,1%
- Lag Phase (Bacillus subtilis 168; minimal medium, 30 µM): 100,0%
